# According to US10550142B2, “Quercetin-based compound” (AMOREPACIFIC CORPORATION, priority 2016, dated 2020):
# Molecular target: T1, β-amyloid (Aβ1-42) (Homo sapiens, UniProt P05067)
# T1 construct: β-amyloid (Aβ1-42, AnaSpec Inc, USA) was obtained; purchased AnaSpec Inc, USA
# Test: Beta-amyloid aggregation inhibition, fluorescence analysis (Thioflavin T assay)
# Format: biochemical
# Settings: compound 10 μM; for Increased RFU (% of Pos.Cont.): aggregated β-amyloid compared to the positive control (no compound) = 100; for decreased aggregation compared with the positive control: positive control taken as 100%
# Method: The beta-amyloid aggregation inhibitory effect of quercetin 3-O-[3-O″-(E)-p-coumaroyl][β-D-glucopyranosyl-(1→3)-O-α-L-rhamnopyranosyl-(1→6)-O-β-D-glucopyranoside] and quercetin 3-O-[3-O″-(E)-p-coumaroyl][α-L-rhamnopyranosyl-(1→6)-O-β-D-glucopyranoside] was determined by fluorescence analysis (Thioflavin T assay). Specifically, β-amyloid (Aβ1-42, AnaSpec Inc, USA) was obtained and used at a concentration of 0.1 mg/ml. It was stored at −80° C. prior to use. Each of morin (20 μM), phenol red (20 μM), quercetin 3-O-[3-O″-(E)-p-coumaroyl][β-D-glucopyranosyl-(1→3)-O-α-L-rhamnopyranosyl-(1→6)-O-β-D-glucopyranoside] (1 mg/ml), and quercetin 3-O-[3-O″-(E)-p-coumaroyl][α-L-rhamnopyranosyl-(1→6)-O-β-D-glucopyranoside] (1 mg/ml) was diluted to these concentrations in DMSO. In order to determine the degree of inhibition of Aβ1-42 aggregation, each compound at the above concentration was diluted to 10 μM in 50 μL of 0.01 M sodium phosphate buffer solution. Then, 40 μL of 0.1 mg/ml Aβ1-42 was added thereto, followed by addition of 10 μL of 2 mM Thioflavin T. The fluorescence was then measured with a fluorescence spectrometer (RF-5300PC, SHIMADZU CORPORATION, Japan) at 37° C. and intervals of 5 minutes for 150 minutes. In the table above, “RFU” denotes relative fluorescence unit, and “increased RFU” indicates the amount of aggregated β-amyloid. “Increased RFU (% of Pos.Cont.)” indicates the percentage of aggregated β-amyloid compared to the positive control. “Novel substance 31” indicates quercetin 3-O-[3-O″-(E)-p-coumaroyl][β-D-glucopyranosyl-(1→3)-O-α-L-rhamnopyranosyl-(1→6)-O-β-D-glucopyranoside], and “novel substance 32” indicates quercetin 3-O-[3-O″-(E)-p-coumaroyl][α-L-rhamnopyranosyl-(1→6)-O-β-D-glucopyranoside].
# T1 sequence (P05067 672-713 limits assumed): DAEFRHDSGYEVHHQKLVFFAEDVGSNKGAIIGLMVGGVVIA
SMILES,"Increased RFU (amount of aggregated β-amyloid) (Aβ1-42 0.1 mg/ml, 37° C., 150 minutes) [RFU]",Increased RFU (% of Pos.Cont.) [%],decreased aggregation compared with the positive control [%]
"O=c1c(O)c(-c2ccc(O)cc2O)oc2cc(O)cc(O)c12 [Morin, morin, reference compound]",11471,78.6,21.4
"O=S1(=O)OC(c2ccc(O)cc2)(c2ccc(O)cc2)c2ccccc21 [Phenol Red, phenol red, reference compound]",–,93.6,6.4
